Source: patent publication US12370168B2 (scPharmaceuticals Inc., priority 2013, dated 2025)

Assays:
[1] = unbuffered
[2] = Example 4 short term storage stability of 8 mg/mL furosemide Tris-buffered solutions; conditions: over 48 hours
Method: Upon preparation, samples were filtered through 0.2 μm nylon filters.
The osmolality values of 50 μL aliquots of each sample were measured by freezing point depression.
Aliquots of each sample were stored at each condition and subsequently filtered and analyzed after 24 and 48 hours of storage.

[3] = Tris buffer pH 7.0, 7.5, 8.0, −20° C., 2° C.-8° C., 25° C., 40° C.

Q: What does the source list for `NS(=O)(=O)c1cc(C(=O)O)c(NCc2ccco2)cc1Cl` [Furosemide, 4-chloro-2-(furan-2-ylmethylamino)-5-sulfamoyl-benzoic acid]?
A: solution pH over time ([1]; 0.1 mg/mL and 8 mg/mL, adjusted to pH 8 to 9 with NaOH and HCl, monitored 72 hours): continually decrease; reproducibility of observed pH values ([1]; 8 mg/mL, pH 8.5, same equivalents of furosemide, acid and base): varied widely; change in furosemide concentration [2, 3]: No decrease; pH deviation from the initial value [2, 3]: ≤ 0.1 units; osmolality over time ([2]; Tris buffer): consistent
